In US10238670B2, “9-aminomethyl minocycline compounds and methods of use thereof in urinary tract infection (UTI) treatment” (Paratek Pharmaceuticals, Inc., priority 2016, dated 2019):
≈ marks a conversion by molar mass, not a printed value. Where two headings read alike, the source gives them in different places.

What was measured:
Test in all cases: In vitro MIC, 2010 surveillance isolates
K. oxytoca = assay type: cell-based; details: for Cumulative % Inhibition at MIC: N=377
E. faecium VNS = assay type: cell-based; details: for Cumulative % Inhibition at MIC: N=614
E. faecalis VNS = assay type: cell-based; details: for Cumulative % Inhibition at MIC: N=54
E. coli ESBL+ = assay type: cell-based, Escherichia coli; details: for Cumulative % Inhibition at MIC: N=795
E. faecium VS = assay type: cell-based; details: for Cumulative % Inhibition at MIC: N=575
A. baumanii = assay type: cell-based
K. pneumoniae ESBL− = assay type: cell-based, Klebsiella pneumoniae; details: for Cumulative % Inhibition at MIC: N=1381
MR CoNS = assay type: cell-based, Coagulase-Negative Staphylococcus; details: for Cumulative % Inhibition at MIC: N=1349
E. coli ESBL− = assay type: cell-based, Escherichia coli; details: for Cumulative % Inhibition at MIC: N=3376

Work on `CN(C)c1cc(CNCC(C)(C)C)c(O)c2c1C[C@H]1C[C@H]3[C@H](N(C)C)C(O)=C(C(N)=O)C(=O)[C@@]3(O)C(O)=C1C2=O` [Compound 1, 9-[(2,2-dimethyl-propylamino)-methyl]-minocycline] yielded an MIC90 (K. oxytoca; Asia/Pac, N=17) of 2 µg/mL (≈ 3.59 µM), an MIC90 (K. oxytoca; Europe, N=158) of 2 µg/mL (≈ 3.59 µM) and an MIC90 (K. oxytoca; L. Amer, N=25) of 4 µg/mL (≈ 7.19 µM). The “Cumulative % Inhibition at MIC” value (K. oxytoca; MIC 1 μg/ml) was 57.6%, the “Cumulative % Inhibition at MIC” value (K. oxytoca; MIC 2 μg/ml) was 89.4% and the “Cumulative % Inhibition at MIC” value (K. oxytoca; MIC 4 μg/ml) was 95.2%. For the same molecule, the “Cumulative % Inhibition at MIC” value (K. oxytoca; MIC 8 μg/ml) was 98.7%, the “Cumulative % Inhibition at MIC” value (K. oxytoca; MIC 16 μg/ml) was 99.7% and the “Cumulative % Inhibition at MIC” value (K. oxytoca; MIC ≤0.5 μg/ml, listed as head image P00013) was 2.1%. The “Cumulative % Inhibition at MIC” value (K. oxytoca; MIC ≥32 μg/ml) was 100%, the MIC90 (K. oxytoca; N America, N=177) was 4 µg/mL (≈ 7.19 µM) and the MIC90 (E. faecium VNS; Asia/Pac, N=24) was 0.25 µg/mL (≈ 0.449 µM). For the same molecule, the MIC90 (E. faecium VNS; Europe, N=71) was 0.25 µg/mL (≈ 0.449 µM), the MIC90 (E. faecium VNS; L. Amer, N=41) was 0.12 µg/mL (≈ 0.216 µM) and the “Cumulative % Inhibition at MIC” value (E. faecium VNS; MIC 1 μg/ml) was 100%. For the same molecule, the “Cumulative % Inhibition at MIC” value (E. faecium VNS; MIC ≤0.5 μg/ml, listed as head image P00004) was 98.4%, the MIC90 (E. faecium VNS; N America, N=478) was 0.25 µg/mL (≈ 0.449 µM) and the “range of MICs (N <10, shown instead of MIC90)” value (“range of MICs” for short) (E. faecalis VNS; Asia/Pac, N=1) was 0.5. The “range of MICs” value (E. faecalis VNS; Europe, N=8) was 0.06-0.5, the “range of MICs” value (E. faecalis VNS; L. Amer, N=7) was ≤0.015-0.06 and the “Cumulative % Inhibition at MIC” value (E. faecalis VNS; MIC 1 μg/ml) was 100%. For the same molecule, the “Cumulative % Inhibition at MIC” value (E. faecalis VNS; MIC ≤0.5 μg/ml, listed as head image P00002) was 98.1%, the MIC90 (E. faecalis VNS; N America, N=38) was 0.25 µg/mL (≈ 0.449 µM) and the MIC90 (E. coli ESBL+; Asia/Pac, N=219) was 2 µg/mL (≈ 3.59 µM). For the same molecule, the MIC90 (E. coli ESBL+; ESBL-producing E. coli) was 4 µg/mL (≈ 7.19 µM), the MIC90 (E. coli ESBL+; Escherichia coli, ESBL-producing E. coli, read-out: MIC90) was < 4 µg/mL and the MIC90 (E. coli ESBL+; Europe, N=274) was 4 µg/mL (≈ 7.19 µM). The MIC90 (E. coli ESBL+; L. Amer, N=168) was 4 µg/mL (≈ 7.19 µM), the “Cumulative % Inhibition at MIC” value (E. coli ESBL+; MIC 1 μg/ml) was 63.0% and the “Cumulative % Inhibition at MIC” value (E. coli ESBL+; MIC 2 μg/ml) was 87.5%. For the same molecule, the “Cumulative % Inhibition at MIC” value (E. coli ESBL+; MIC 4 μg/ml) was 97.7%, the “Cumulative % Inhibition at MIC” value (E. coli ESBL+; MIC 8 μg/ml) was 99.5% and the “Cumulative % Inhibition at MIC” value (E. coli ESBL+; MIC 16 μg/ml) was 99.9%. For the same molecule, the “Cumulative % Inhibition at MIC” value (E. coli ESBL+; MIC ≤0.5 μg/ml, listed as head image P00006) was 30.4%, the “Cumulative % Inhibition at MIC” value (E. coli ESBL+; MIC ≥32 μg/ml) was 100% and the MIC90 (E. coli ESBL+; N America, N=134) was 4 µg/mL (≈ 7.19 µM). It also gave an MIC90 (E. faecium VS; Asia/Pac, N=106) of 0.25 µg/mL (≈ 0.449 µM), an MIC90 (E. faecium VS; Europe, N=303) of 0.12 µg/mL (≈ 0.216 µM) and an MIC90 (E. faecium VS; L. Amer, N=51) of 0.12 µg/mL (≈ 0.216 µM). For the same molecule, the “Cumulative % Inhibition at MIC” value (E. faecium VS; MIC 1 μg/ml) was 100%, the “Cumulative % Inhibition at MIC” value (E. faecium VS; MIC ≤0.5 μg/ml, listed as head image P00003) was 99.8% and the MIC90 (E. faecium VS; N America, N=115) was 0.25 µg/mL (≈ 0.449 µM). For the same molecule, the MIC90 (A. baumanii; Asia/Pac, N=275) was 4 µg/mL (≈ 7.19 µM), the MIC90 (A. baumanii; Europe, N=145) was 4 µg/mL (≈ 7.19 µM) and the MIC90 (A. baumanii; L. Amer, N=275) was 4 µg/mL (≈ 7.19 µM). For the same molecule, the MIC90 (A. baumanii; N America, N=154) was 8 µg/mL (≈ 14.4 µM), the MIC90 (K. pneumoniae ESBL−; Asia/Pac, N=189) was 4 µg/mL (≈ 7.19 µM) and the MIC90 (K. pneumoniae ESBL−; Europe, N=361) was 4 µg/mL (≈ 7.19 µM). For the same molecule, the MIC90 (K. pneumoniae ESBL−; L. Amer, N=160) was 4 µg/mL (≈ 7.19 µM), the “Cumulative % Inhibition at MIC” value (K. pneumoniae ESBL−; MIC 1 μg/ml) was 29.1% and the “Cumulative % Inhibition at MIC” value (K. pneumoniae ESBL−; MIC 2 μg/ml) was 79.9%. The “Cumulative % Inhibition at MIC” value (K. pneumoniae ESBL−; MIC 4 μg/ml) was 92.1%, the “Cumulative % Inhibition at MIC” value (K. pneumoniae ESBL−; MIC 8 μg/ml) was 95.6% and the “Cumulative % Inhibition at MIC” value (K. pneumoniae ESBL−; MIC 16 μg/ml) was 98.3%. The “Cumulative % Inhibition at MIC” value (K. pneumoniae ESBL−; MIC ≤0.5 μg/ml, listed as head image P00009) was 2.4%, the “Cumulative % Inhibition at MIC” value (K. pneumoniae ESBL−; MIC ≥32 μg/ml) was 100% and the MIC90 (K. pneumoniae ESBL−; N America, N=671) was 4 µg/mL (≈ 7.19 µM). For the same molecule, the MIC90 (MR CoNS; Asia/Pac, N=77) was 1 µg/mL (≈ 1.8 µM), the MIC90 (MR CoNS; Europe, N=510) was 1 µg/mL (≈ 1.8 µM) and the MIC90 (MR CoNS; L. Amer, N=301) was 1 µg/mL (≈ 1.8 µM). For the same molecule, the “Cumulative % Inhibition at MIC” value (MR CoNS; MIC 1 μg/ml) was 99.1%, the “Cumulative % Inhibition at MIC” value (MR CoNS; MIC 2 μg/ml) was 100% and the “Cumulative % Inhibition at MIC” value (MR CoNS; MIC ≤0.5 μg/ml) was 85.9%. The MIC90 (MR CoNS; N America, N=461) was 1 µg/mL (≈ 1.8 µM), the MIC90 (E. coli ESBL−; Asia/Pac, N=282) was 2 µg/mL (≈ 3.59 µM) and the MIC90 (E. coli ESBL−; Escherichia coli, ESBL-negative E. coli, read-out: MIC90) was 2 µg/mL (≈ 3.59 µM). The MIC90 (E. coli ESBL−; Europe, N=1533) was 2 µg/mL (≈ 3.59 µM), the MIC90 (E. coli ESBL−; L. Amer, N=389) was 2 µg/mL (≈ 3.59 µM) and the “Cumulative % Inhibition at MIC” value (E. coli ESBL−; MIC 1 μg/ml) was 84.2%. The “Cumulative % Inhibition at MIC” value (E. coli ESBL−; MIC 2 μg/ml) was 95.9% and the “Cumulative % Inhibition at MIC” value (E. coli ESBL−; MIC 4 μg/ml) was 99.3%.
